{
  "source": "ChEMBL document CHEMBL5465560",
  "about": "“Selectivity Literature for EUbOPEN Chemogenomic Library” (2024)",
  "key": {"[1]": {"molecular_target": "Myosin light chain kinase 2, skeletal/cardiac muscle (Homo sapiens) (UniProt Q9H1R3)", "sequence (Q9H1R3 whole entry)": "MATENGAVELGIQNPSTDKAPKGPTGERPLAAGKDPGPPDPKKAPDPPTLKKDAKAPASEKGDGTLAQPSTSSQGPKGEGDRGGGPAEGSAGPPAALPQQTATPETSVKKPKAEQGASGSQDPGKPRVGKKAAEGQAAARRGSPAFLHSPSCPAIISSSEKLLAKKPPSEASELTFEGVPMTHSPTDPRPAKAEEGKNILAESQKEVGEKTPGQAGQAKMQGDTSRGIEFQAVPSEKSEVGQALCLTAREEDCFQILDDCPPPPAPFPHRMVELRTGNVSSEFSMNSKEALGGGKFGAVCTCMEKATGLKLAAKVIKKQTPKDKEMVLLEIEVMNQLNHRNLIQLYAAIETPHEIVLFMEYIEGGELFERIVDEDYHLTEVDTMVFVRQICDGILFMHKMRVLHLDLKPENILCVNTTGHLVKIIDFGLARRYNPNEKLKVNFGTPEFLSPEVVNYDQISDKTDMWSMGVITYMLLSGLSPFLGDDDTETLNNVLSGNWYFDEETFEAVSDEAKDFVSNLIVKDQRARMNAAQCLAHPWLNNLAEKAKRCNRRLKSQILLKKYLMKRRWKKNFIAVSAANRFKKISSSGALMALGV", "assay": "Selectivity interaction (KinomeScan (DiscoverX)) EUB0001079a MYLK2", "settings": "at 1 µM"}, "[2]": {"molecular_target": "Mitogen-activated protein kinase 14 (Homo sapiens, UniProt Q16539)", "sequence (Q16539 whole entry)": "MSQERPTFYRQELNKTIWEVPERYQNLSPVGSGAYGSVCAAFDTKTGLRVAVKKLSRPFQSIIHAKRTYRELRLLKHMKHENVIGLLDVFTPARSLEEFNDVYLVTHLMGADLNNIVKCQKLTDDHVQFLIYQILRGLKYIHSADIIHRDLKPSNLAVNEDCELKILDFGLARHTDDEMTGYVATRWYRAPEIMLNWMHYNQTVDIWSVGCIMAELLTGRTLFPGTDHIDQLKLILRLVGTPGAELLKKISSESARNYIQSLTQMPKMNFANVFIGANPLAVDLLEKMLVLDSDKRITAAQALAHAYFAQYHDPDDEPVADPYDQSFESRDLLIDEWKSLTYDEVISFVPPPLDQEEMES", "assay": "Selectivity interaction (SelectScreen profiling (Invitrogen)) EUB0000607a MAPK14", "settings": "at 2 µM"}, "[3]": {"molecular_target": "T1, Ephrin type-B receptor 2 (Homo sapiens) (UniProt P29323)", "T1 sequence (whole entry)": "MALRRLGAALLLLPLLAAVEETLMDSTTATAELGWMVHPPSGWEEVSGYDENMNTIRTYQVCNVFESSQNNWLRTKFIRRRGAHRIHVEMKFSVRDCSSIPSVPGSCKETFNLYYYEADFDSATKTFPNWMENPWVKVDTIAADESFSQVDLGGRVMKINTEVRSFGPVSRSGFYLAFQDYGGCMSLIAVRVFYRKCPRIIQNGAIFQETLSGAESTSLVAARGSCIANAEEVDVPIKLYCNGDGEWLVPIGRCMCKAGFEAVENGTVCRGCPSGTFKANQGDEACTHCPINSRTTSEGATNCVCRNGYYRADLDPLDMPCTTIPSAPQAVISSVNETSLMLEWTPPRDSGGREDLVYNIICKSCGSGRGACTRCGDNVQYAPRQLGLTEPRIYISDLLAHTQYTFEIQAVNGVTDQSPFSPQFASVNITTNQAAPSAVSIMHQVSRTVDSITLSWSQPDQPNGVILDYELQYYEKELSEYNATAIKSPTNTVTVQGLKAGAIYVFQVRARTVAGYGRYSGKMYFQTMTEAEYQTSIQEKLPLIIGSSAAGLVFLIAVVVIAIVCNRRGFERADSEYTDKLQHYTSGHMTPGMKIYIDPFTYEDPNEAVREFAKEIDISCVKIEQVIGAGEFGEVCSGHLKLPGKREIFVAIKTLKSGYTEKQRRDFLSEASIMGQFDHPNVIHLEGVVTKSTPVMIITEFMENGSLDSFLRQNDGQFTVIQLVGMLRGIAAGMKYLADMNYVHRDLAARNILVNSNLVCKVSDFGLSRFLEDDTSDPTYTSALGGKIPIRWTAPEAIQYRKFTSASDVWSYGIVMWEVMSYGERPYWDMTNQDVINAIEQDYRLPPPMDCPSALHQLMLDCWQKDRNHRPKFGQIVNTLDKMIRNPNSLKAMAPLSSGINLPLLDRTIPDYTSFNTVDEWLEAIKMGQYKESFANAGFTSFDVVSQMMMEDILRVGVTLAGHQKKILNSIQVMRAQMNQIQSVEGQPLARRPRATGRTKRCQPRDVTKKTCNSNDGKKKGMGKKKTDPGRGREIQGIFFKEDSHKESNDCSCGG", "assay": "Selectivity interaction (KinomeScan (DiscoverX)) EUB0000595a EPHB2", "settings": "at 10 µM"}, "[4]": {"molecular_target": "Microtubule-associated serine/threonine-protein kinase 1 (Homo sapiens) (UniProt Q9Y2H9)", "assay": "Selectivity interaction (KinomeScan (DiscoverX)) EUB0000595a MAST1", "settings": "at 10 µM"}, "[5]": {"molecular_target": "T2, Muscle, skeletal receptor tyrosine-protein kinase (Homo sapiens) (UniProt O15146)", "T2 sequence (whole entry)": "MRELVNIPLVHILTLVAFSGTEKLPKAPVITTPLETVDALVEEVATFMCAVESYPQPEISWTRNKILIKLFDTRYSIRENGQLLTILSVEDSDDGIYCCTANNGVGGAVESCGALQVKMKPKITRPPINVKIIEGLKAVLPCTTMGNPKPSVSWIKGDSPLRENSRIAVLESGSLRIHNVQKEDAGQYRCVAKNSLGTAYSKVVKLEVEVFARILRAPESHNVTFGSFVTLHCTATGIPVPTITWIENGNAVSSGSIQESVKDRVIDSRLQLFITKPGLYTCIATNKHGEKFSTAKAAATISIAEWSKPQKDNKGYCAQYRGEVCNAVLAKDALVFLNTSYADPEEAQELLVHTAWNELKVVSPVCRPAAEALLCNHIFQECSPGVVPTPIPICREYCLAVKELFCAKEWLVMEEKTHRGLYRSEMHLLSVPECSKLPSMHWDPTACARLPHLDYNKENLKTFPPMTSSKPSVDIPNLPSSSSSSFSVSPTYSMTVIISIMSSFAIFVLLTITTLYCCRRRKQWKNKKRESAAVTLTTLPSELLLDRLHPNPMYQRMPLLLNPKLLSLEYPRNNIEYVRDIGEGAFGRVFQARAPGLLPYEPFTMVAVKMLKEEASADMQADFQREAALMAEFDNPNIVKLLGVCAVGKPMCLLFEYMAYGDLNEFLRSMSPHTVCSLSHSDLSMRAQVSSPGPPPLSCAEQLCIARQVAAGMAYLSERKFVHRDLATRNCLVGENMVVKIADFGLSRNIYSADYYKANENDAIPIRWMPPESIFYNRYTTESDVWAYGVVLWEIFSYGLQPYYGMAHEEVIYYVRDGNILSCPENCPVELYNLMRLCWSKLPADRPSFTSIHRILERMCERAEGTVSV", "assay": "Selectivity interaction (KinomeScan (DiscoverX)) EUB0000595a MUSK", "settings": "at 10 µM"}, "[6]": {"molecular_target": "Serine/threonine-protein kinase SMG1 (Homo sapiens) (UniProt Q96Q15)", "assay": "Selectivity interaction (ActivX KiNativ screen (kinase selectivity in THP-1 cell lysates)) EUB0000639a SMG1", "assay_type": "subcellular", "settings": "lysate, at 0.01 µM"}, "[7]": {"molecular_target": "Mitogen-activated protein kinase kinase kinase 14 (Homo sapiens) (UniProt Q99558)", "sequence (Q99558 whole entry, looked up)": "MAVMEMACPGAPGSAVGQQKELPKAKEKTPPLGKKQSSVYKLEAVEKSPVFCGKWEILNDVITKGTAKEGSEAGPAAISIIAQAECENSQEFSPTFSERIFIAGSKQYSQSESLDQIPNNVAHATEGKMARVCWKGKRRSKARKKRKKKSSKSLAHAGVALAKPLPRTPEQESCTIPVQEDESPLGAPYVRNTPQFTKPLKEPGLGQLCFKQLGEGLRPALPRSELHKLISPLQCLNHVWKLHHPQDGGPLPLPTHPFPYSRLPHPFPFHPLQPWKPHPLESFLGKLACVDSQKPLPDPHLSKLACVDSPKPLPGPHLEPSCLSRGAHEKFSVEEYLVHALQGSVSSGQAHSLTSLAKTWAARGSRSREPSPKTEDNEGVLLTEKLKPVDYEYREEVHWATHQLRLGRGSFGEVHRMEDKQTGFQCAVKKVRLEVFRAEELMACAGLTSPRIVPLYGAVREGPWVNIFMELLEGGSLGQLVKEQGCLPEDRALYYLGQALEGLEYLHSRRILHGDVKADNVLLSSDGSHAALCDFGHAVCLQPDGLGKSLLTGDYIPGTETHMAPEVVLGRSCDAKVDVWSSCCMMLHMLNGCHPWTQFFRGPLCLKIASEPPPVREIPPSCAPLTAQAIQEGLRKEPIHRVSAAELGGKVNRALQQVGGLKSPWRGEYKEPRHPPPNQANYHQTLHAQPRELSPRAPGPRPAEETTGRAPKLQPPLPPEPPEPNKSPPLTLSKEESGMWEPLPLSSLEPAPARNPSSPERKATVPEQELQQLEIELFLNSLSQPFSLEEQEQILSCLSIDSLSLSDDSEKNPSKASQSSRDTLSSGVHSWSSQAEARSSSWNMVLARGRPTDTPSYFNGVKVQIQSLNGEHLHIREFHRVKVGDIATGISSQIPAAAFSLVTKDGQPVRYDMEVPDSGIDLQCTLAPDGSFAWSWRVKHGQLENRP", "assay": "Selectivity interaction (ProQinase) EUB0000171b MAP3K14"}, "[8]": {"molecular_target": "Acetylcholine receptor subunit alpha (Homo sapiens, UniProt P02708)", "assay": "Selectivity interaction (Panel of kinases, GPCRs, ion channels and transporters (enzymatic assay)) EUB0000266bCl CHRNA1"}, "[9]": {"molecular_target": "Proto-oncogene tyrosine-protein kinase ROS (Homo sapiens) (UniProt P08922)", "sequence (P08922 whole entry)": "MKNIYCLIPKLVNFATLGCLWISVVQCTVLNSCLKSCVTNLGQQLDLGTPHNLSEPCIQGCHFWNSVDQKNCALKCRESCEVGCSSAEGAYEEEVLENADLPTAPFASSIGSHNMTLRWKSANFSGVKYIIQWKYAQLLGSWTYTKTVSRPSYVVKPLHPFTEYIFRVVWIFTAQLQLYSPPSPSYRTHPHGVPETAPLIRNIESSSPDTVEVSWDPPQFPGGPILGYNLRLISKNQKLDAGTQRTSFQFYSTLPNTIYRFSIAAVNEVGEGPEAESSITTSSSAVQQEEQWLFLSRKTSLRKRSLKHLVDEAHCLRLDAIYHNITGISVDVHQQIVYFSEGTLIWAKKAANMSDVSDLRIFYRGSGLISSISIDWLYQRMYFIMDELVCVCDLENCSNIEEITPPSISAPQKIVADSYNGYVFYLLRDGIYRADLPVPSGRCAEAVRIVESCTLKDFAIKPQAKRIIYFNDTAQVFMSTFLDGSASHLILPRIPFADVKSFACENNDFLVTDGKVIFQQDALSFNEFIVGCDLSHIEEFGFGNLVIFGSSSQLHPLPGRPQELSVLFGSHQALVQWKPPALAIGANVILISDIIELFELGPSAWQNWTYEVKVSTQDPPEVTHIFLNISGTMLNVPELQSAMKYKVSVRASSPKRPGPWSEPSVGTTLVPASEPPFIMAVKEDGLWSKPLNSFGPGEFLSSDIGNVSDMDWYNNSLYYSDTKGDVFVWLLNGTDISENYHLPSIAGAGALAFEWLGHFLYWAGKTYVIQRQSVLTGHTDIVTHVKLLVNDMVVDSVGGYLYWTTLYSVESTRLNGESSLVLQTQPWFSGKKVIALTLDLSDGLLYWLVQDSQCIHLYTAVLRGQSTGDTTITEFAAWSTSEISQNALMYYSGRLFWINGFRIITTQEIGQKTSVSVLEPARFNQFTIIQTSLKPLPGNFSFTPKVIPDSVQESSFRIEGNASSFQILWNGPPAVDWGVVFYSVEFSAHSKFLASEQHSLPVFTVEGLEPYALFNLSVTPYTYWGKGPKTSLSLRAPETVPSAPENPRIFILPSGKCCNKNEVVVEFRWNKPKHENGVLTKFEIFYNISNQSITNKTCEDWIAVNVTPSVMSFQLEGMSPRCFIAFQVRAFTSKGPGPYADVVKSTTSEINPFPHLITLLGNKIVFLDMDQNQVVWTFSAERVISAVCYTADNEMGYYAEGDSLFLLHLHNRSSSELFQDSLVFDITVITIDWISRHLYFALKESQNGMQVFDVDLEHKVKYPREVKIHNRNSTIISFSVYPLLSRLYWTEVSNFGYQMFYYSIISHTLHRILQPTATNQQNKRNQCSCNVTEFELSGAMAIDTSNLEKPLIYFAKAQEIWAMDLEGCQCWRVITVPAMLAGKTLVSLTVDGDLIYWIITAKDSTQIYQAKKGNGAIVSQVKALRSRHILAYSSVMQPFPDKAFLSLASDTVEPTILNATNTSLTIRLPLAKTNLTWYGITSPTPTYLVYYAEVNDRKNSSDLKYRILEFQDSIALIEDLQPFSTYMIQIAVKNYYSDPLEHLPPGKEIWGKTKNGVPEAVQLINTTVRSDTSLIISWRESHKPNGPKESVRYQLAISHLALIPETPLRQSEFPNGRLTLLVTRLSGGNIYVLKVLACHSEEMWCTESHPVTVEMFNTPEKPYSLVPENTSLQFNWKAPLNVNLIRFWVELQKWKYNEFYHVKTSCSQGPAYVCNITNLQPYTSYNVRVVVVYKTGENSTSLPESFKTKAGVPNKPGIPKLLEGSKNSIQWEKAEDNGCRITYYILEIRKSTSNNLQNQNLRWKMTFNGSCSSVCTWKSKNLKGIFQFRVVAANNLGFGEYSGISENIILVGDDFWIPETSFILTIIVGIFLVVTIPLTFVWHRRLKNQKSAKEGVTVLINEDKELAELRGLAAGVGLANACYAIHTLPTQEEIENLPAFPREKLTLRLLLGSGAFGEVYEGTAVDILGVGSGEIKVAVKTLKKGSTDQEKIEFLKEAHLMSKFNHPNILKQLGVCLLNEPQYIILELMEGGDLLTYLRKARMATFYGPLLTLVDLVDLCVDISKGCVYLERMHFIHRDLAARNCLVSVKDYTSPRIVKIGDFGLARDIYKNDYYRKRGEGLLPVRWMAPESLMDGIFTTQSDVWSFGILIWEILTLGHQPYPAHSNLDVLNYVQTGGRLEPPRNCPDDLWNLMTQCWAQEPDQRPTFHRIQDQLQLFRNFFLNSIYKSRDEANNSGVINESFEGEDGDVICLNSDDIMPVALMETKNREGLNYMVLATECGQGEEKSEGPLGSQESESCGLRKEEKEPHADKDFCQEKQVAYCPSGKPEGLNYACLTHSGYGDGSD", "assay": "Selectivity interaction (Kinase panel (Z-LYTE Assay)) EUB0001632a ROS1", "settings": "at 10 µM"}, "[10]": {"molecular_target": "Serine/threonine-protein kinase 25 (Homo sapiens) (UniProt O00506)", "sequence (O00506 whole entry, looked up)": "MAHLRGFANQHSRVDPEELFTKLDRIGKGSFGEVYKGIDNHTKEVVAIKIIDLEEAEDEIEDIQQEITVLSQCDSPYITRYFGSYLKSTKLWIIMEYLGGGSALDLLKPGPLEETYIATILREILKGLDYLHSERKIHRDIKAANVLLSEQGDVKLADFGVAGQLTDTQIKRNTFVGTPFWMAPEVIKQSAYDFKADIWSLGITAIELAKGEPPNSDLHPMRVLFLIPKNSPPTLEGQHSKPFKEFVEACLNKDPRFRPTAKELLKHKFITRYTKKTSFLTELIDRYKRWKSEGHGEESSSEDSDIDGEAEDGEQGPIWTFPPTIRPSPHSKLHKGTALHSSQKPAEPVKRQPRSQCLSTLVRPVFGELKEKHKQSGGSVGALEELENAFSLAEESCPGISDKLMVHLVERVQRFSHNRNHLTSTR", "assay": "Selectivity interaction (KinomeScan (DiscoverX)) EUB0000695a STK25", "settings": "at 100 nM"}},
  "data": [
    {"smiles": "Nc1cnc(N2CCc3cc(S(=O)(=O)Nc4c(F)cc(Cl)cc4F)cc(N4CCCC4=O)c32)nc1", "note": "[TP-020n]", "values": [
      {"measurement": "% of control", "setting": "[1]", "value": 87, "unit": "%"}
    ]},
    {"smiles": "CNC(=O)Nc1ccc(-c2nc(N3CC4CCC(C3)O4)c3cnn(C4CCC5(CC4)OCCO5)c3n2)cc1", "values": [
      {"measurement": "% of inhibition", "setting": "[2]", "value": 11, "unit": "%"}
    ]},
    {"smiles": "COCC(=O)NC/C=C/c1ccc2ncnc(Nc3ccc(Oc4ccc(C)nc4)c(C)c3)c2c1", "note": "[CP-724714]", "values": [
      {"measurement": "% of control", "setting": "[3]", "value": 100, "unit": "%"},
      {"measurement": "% of control", "setting": "[4]", "value": 100, "unit": "%"},
      {"measurement": "% of control", "setting": "[5]", "value": 100, "unit": "%"}
    ]},
    {"smiles": "CC[C@@H]1[C@H](F)C(=O)N[C@@H]1COc1nccc2cc(C(N)=O)c(OC)cc12", "note": "[ZIMLOVISERTIB]", "values": [
      {"measurement": "% of inhibition", "setting": "[6]", "value": -2.1, "unit": "%"}
    ]},
    {"smiles": "C=CC(=O)Nc1cccc(C(=O)Nc2ccc(Nc3cc(-c4[nH]c(SC)nc4C)ccn3)cc2)c1", "values": [
      {"measurement": "% of control", "setting": "[7]; at 1 µM", "value": 91, "unit": "%"},
      {"measurement": "% of control", "setting": "[7]; at 5 µM", "value": 87, "unit": "%"}
    ]},
    {"smiles": "CCn1c(-c2nc3cc(C(=O)N4CCCC(N)C4)ccc3n2C)cc2ccccc21", "note": "(stereo unspecified)", "values": [
      {"measurement": "pXC50", "setting": "[8]", "value": "< 4.8", "unit": "M"}
    ]},
    {"smiles": "Cn1cc(-n2cnc3c(NCc4nc5cc(Cl)c(Cl)cc5[nH]4)nc(N4CCOCC4)nc32)cn1", "values": [
      {"measurement": "% of control", "setting": "[9]", "value": 0.847, "unit": "%"}
    ]},
    {"smiles": "Cc1cc(F)c(C(=O)Nc2cccc(-c3nncn3C(C)C)n2)cc1-n1cnc(C2CC2)c1", "values": [
      {"measurement": "% of control", "setting": "[10]", "value": 100, "unit": "%"}
    ]}
  ]
}
